# In patent US20250230193A1, “CYCLIC COMPOUND HAVING SELECTIVE KRAS INHIBITORY EFFECT ON HRAS AND NRAS” (CHUGAI SEIYAKU KABUSHIKI KAISHA, priority 2022, published 2025):
# Where a SMILES comes first, the peptide text is derived from it. Bridges are numbered along the chain shown (N, C = ends). [ ]: non-standard residue; d: D form. The star is where a group is joined. hPhe(3-Cl-4-CF3) = N[C@@H](CCc1ccc(C(F)(F)F)c(Cl)c1)C(=O)O; NPrPhe(4-CF3) = CCCN[C@@H](Cc1ccc(C(F)(F)F)cc1)C(=O)O; NMeGly(cPent) = CN[C@H](C(=O)O)C1CCCC1; NMeD = CN[C@@H](CC(=O)O)C(=O)O; NMeL = CN[C@@H](CC(C)C)C(=O)O; Morpholide = C1CN(*)CCO1; Ac5c = NC1(C(=O)O)CCCC1; Sar = CNCC(=O)O
# Columns and labels:
# [1] = target: GDP-bound NRAS wild-type protein (Homo sapiens, UniProt P01111); assay: Binding to NRAS by surface plasmon resonance (SPR), Single Cycle Kinetics; details: SPR; for NRAS/KRAS (ratio of KD value for NRAS to KD value for KRAS) / NRAS/KRAS (ratio of KD value with respect to NRAS to KD value with respect to KRAS): GDP-bound NRAS wild-type vs GDP-bound KRAS wild-type
# Chain of GDP-bound NRAS wild-type protein (P01111 whole entry): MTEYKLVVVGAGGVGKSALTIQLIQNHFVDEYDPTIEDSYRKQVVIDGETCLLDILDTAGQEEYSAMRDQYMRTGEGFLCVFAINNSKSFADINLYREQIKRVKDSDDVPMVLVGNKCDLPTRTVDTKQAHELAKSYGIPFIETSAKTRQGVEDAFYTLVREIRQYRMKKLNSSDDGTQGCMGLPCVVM
# [2] = target: GDP-bound HRAS wild-type protein (Homo sapiens, UniProt P01112); assay: Binding to HRAS by surface plasmon resonance (SPR), Single Cycle Kinetics; details: SPR; for HRAS/KRAS (ratio of KD value for HRAS to KD value for KRAS) / HRAS/KRAS (ratio of KD value with respect to HRAS to KD value with respect to KRAS): GDP-bound HRAS wild-type vs GDP-bound KRAS wild-type
# Chain of GDP-bound HRAS wild-type protein (P01112 whole entry): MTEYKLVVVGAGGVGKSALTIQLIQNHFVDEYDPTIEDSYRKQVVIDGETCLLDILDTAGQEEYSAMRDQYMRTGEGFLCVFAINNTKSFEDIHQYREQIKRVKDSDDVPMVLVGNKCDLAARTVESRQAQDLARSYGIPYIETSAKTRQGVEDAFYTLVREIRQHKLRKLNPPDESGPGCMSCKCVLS
structure (smiles),measurement,setting,value
CCCN1C(=O)CN(C)C(=O)[C@H](C)NC(=O)[C@H]([C@@H](C)CC)NC(=O)[C@H](CC(C)C)N(C)C(=O)C[C@@H](C(=O)N2CCOCC2)N(C)C(=O)[C@H](C2CCCC2)N(C)C(=O)C2(CCCC2)NC(=O)[C@@H]2CCCN2C(=O)[C@H](CCc2ccc(C(F)(F)F)c(Cl)c2)NC(=O)CN(C)C(=O)[C@@H]1Cc1ccc(C(F)(F)F)cc1 [PP1971] ([NMeL]IA[Sar][NPrPhe(4-CF3)][Sar][hPhe(3-Cl-4-CF3)]P[Ac5c][NMeGly(cPent)][NMeD]-Morpholide; lactam N-11),NRAS/KRAS (ratio of KD value for NRAS to KD value for KRAS),[1]; KD ratio,B (a compound having 3 or more and less than 10 is denoted as B)
same,HRAS/KRAS (ratio of KD value for HRAS to KD value for KRAS),[2]; KD ratio,B (a compound having 3 or more and less than 10 is denoted as B)
CCO[C@@H]1C[C@H]2C(=O)NC3(CCC3)C(=O)N(C)[C@@H](C3CCCCC3)C(=O)N(C)[C@H](C(=O)N(C)C)CC(=O)N(C)[C@@H](CC)C(=O)N[C@@H]([C@@H](C)CC)C(=O)N(C)CC(=O)N(C)[C@H]3C/C=C\CCN(C3=O)[C@@H](Cc3ccc(C(F)(F)F)cc3)C(=O)N(C)CC(=O)N[C@@H](CCc3cc(F)c(C(F)(F)F)c(F)c3)C(=O)N2C1 [PP1086],NRAS/KRAS (ratio of KD value with respect to NRAS to KD value with respect to KRAS),[1]; KD ratio,AA (a compound having 20 or more is denoted as AA)
same,HRAS/KRAS (ratio of KD value with respect to HRAS to KD value with respect to KRAS),[2]; KD ratio,A (a compound having 10 or more and less than 20 is denoted as A)
CCC[C@H]1C(=O)N[C@@H]([C@@H](C)CC)C(=O)N(C)CC(=O)N(C)[C@H]2C/C=C\CCN(C2=O)[C@@H](Cc2ccc(C)cc2)C(=O)N(C)CC(=O)N[C@@H](CCc2ccc(C(F)(F)F)c(OC)c2)C(=O)N2C[C@@H](C)C[C@H]2C(=O)NC2(CC(C)(C)C2)C(=O)N(C)[C@@H](C2CCCC2)C(=O)N(C)[C@H](C(=O)N(C)CC)CC(=O)N1C [PP1889],NRAS/KRAS (ratio of KD value for NRAS to KD value for KRAS),[1]; KD ratio,A (a compound having 10 or more and less than 20 is denoted as A)
same,HRAS/KRAS (ratio of KD value for HRAS to KD value for KRAS),[2]; KD ratio,B (a compound having 3 or more and less than 10 is denoted as B)
CCO[C@@H]1C[C@H]2C(=O)NC3(CCCC3)C(=O)N(C)[C@@H](C3CCCC3)C(=O)N(C)[C@H](C(=O)N(C)C)CC(=O)N(C)[C@@H](CC(C)C)C(=O)N[C@@H]([C@@H](C)CC)C(=O)N(C)CC(=O)N(C)[C@H]3CCCCN(C3=O)[C@@H](Cc3ccc(C(F)(F)F)cc3)C(=O)N(C)CC(=O)N[C@@H](CCc3cc(F)c(C(F)(F)F)c(F)c3)C(=O)N2C1 [PP0579],NRAS/KRAS (ratio of KD value with respect to GDP-bound NRAS wild-type protein to KD value with respect to KRAS),[1]; KD ratio NRAS/KRAS,C (A compound having a KD ratio of 0.1 or more and less than 3 is denoted as C)
same,HRAS/KRAS (ratio of KD value with respect to GDP-bound HRAS wild-type protein to KD value with respect to KRAS),[2]; KD ratio HRAS/KRAS,B (a compound having 3 or more and less than 10 is denoted as B)
CCO[C@@H]1C[C@H]2C(=O)NC3(CCC3)C(=O)N(C)[C@@H](C3CCCC3)C(=O)N(C)[C@H](C(=O)N(C)C)CC(=O)N(C)[C@@H](Cc3ccc(Cl)c(Cl)c3)C(=O)N[C@@H]([C@@H](C)CC)C(=O)N(C)CC(=O)N(C)[C@H]3CCCCCN(C3=O)[C@@H](Cc3ccc(F)cc3)C(=O)N(C)CC(=O)N[C@@H](CCc3cc(F)c(C(F)(F)F)c(F)c3)C(=O)N2C1 [PP1158],NRAS/KRAS (ratio of KD value with respect to NRAS to KD value with respect to KRAS),[1]; KD ratio,B (a compound having 3 or more and less than 10 is denoted as B)
same,HRAS/KRAS (ratio of KD value with respect to HRAS to KD value with respect to KRAS),[2]; KD ratio,B (a compound having 3 or more and less than 10 is denoted as B)
CCO[C@@H]1C[C@H]2C(=O)NC3(CC(C)(C)C3)C(=O)N(C)[C@@H](C3CCCC3)C(=O)N(C)[C@H](C(=O)N(C)CC)CC(=O)N(C)[C@@H](C3CCC3)C(=O)N[C@@H]([C@@H](C)CC)C(=O)N(C)CC(=O)N(C)[C@H]3C/C=C\CCN(C3=O)[C@@H](Cc3ccc(C(F)(F)F)cc3)C(=O)N(C)CC(=O)N[C@@H](CCc3cc(F)c(C(F)(F)F)c(F)c3)C(=O)N2C1 [PP2038],NRAS/KRAS (ratio of KD value with respect to NRAS to KD value with respect to KRAS),[1],A (a compound having 10 or more and less than 20 is denoted as A)
same,HRAS/KRAS (ratio of KD value with respect to HRAS to KD value with respect to KRAS),[2],A (a compound having 10 or more and less than 20 is denoted as A)
CCO[C@@H]1C[C@H]2C(=O)NC3(CCC3)C(=O)N(C)[C@@H](C3CCCC3)C(=O)N(C)[C@H](C(=O)N(C)C)CC(=O)N(C)[C@@H](CC3CCCC3)C(=O)N[C@@H]([C@@H](C)CC)C(=O)N(C)CC(=O)N(C)[C@H]3C/C=C\CCN(C3=O)[C@@H](Cc3ccc(C(F)(F)F)cc3)C(=O)N(C)CC(=O)N[C@@H](CCc3cc(F)c(C(F)(F)F)c(F)c3)C(=O)N2C1 [PP1112],NRAS/KRAS (ratio of KD value with respect to NRAS to KD value with respect to KRAS),[1]; KD ratio,A (a compound having 10 or more and less than 20 is denoted as A)
same,HRAS/KRAS (ratio of KD value with respect to HRAS to KD value with respect to KRAS),[2]; KD ratio,B (a compound having 3 or more and less than 10 is denoted as B)
